Assays:
Human IBAT = target: T1, Human IBAT (Homo sapiens, UniProt Q12908); assay: IBAT (h/m) assay, human IBAT-overexpressing cells, 3H-taurocholic acid uptake; format: cell-based; conditions: 0.25 μM 3H-taurocholic acid and 5 μM cold taurocholic acid, 20 minutes, read-out: hIBAT IC50
T1 construct: expressed in transfected cells; Puromycin-selected
T1 sequence (Q12908 1-348): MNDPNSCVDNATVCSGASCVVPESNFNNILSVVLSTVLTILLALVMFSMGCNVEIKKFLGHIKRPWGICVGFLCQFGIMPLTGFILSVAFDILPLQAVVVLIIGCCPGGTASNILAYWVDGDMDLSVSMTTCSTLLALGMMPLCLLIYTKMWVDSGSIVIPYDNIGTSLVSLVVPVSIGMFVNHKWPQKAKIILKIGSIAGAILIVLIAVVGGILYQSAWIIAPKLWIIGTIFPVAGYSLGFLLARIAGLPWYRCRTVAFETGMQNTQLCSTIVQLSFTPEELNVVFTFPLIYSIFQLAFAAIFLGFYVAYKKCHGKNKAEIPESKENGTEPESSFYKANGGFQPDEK
Description: IBAT (h/m) Assay Protocol
10,000 cells (Human or Mouse IBAT-overexpressing cells) were seeded in 96-wells plate (Corning CLS3809) in 200 μL MEM-alpha medium (Gibco 12571-063) supplemented with 10% FBS (Gibco 10438026) containing Puromycin (Gibco A1113803) (10 μg/mL) and incubated at 37° C. in 5% CO2 for 48 hours. After incubation, media was decanted from the wells and cells were washed two times with 300 μL of basal MEM-alpha medium (FBS-free). After decanting basal MEM-alpha medium each time, plates were tapped against paper towel to ensure maximum removal of residual media. Test inhibitor dilutions (highest test concentration being 10 μM, 3-fold serial dilution, 10 points) prepared in DMSO (Sigma D2650) were added in incubation mix (maintaining 0.2% final DMSO concentration) containing 0.25 μM 3H-taurocholic acid (ARC ART-1368) and 5 μM of cold taurocholic acid (Sigma T4009). 50 μL of incubation mix containing test inhibitors was then added to the wells (in duplicate) and the plates were incubated for 20 minutes in a CO2 incubator at 37° C. After incubation, the reaction was stopped by keeping the plates on ice water mix for 2-3 minutes and then the incubation mix was aspirated completely from the wells. The wells were washed two times with 250 μL of chilled unlabelled 1 mM taurocholic acid dissolved in HEPES (Gibco 15630080)-buffered (10 mM) HBSS (Gibco 14175079) (pH 7.4). The plates were tapped against a paper towel after every wash to ensure maximum removal of blocking buffer.
100 μL of MicroScint-20 (PerkinElmer 6013621) was added to the wells and kept overnight at room temperature before reading the plates in TopCount NXT™ Microplate Scintillation and Luminescence Counter from PerkinElmer under 3H Test protocol (set at 120 seconds reading time per well).
(§1) Preparation of Test Compound Dilutions
(§2) All test compounds were provided in powder form at room temperature. 10 mM DMSO stocks of the test compounds were prepared, aliquoted and stored at −20° C. From the 10 mM DMSO stock of the compounds, a 3-fold serial dilution in DMSO was prepared to get a total of 10 dilutions of the test compounds. 0.5 μL of this dilution in DMSO was added to 250 μL of FBS-free basal media containing 3H-taurocholic acid and cold taurocholic acid to prepare the incubation mixture.

[1] = Bidirectional permeability assay (Caco-2 cells); format: in vitro ADME; conditions: human, Caco-2, absorptive direction (A2B), 10 μM in FaSSIF buffer
Description: Bidirectional Permeability Assay (Caco-2 Cells)
Caco-2 cells (Evotec) were seeded at a density of 70,000 cells/well in Millicell® 24-well cell culture insert plates and maintained in an incubator (37° C., 5% CO2, 95% RH) for 21 days with media change on alternate days.
Stock solutions (10 mM) of the test compounds, atenolol (low permeability marker), propranolol (high permeability marker) and digoxin (substrate for P-gp transport pathway) were prepared in dimethylsulfoxide (DMSO). An intermediate stock solution (1 mM) was prepared by diluting 10 μL of 10 mM master stock solution with 90 μL of neat DMSO. A working stock solution (10 μM) was prepared by diluting 50 μL of 1 mM with 4950 μL of FaSSIF buffer. Post addition of compounds to the FaSSIF, samples were subjected to sonication for 2 hours, and centrifuged at 4000 RPM for 30 minutes at 37° C. The 4 mL of resultant supernatant was directly used in the assay. The final DMSO concentration in the transport experiments was 1%.
On the day of assay, Caco-2 monolayers were washed twice with transport buffer (HBSS, pH 7.4) and pre-incubated for 30 min (37° C., 5% CO2, 95% RH) in an incubator. The electrical resistance of the monolayers was measured with a Millicell®—ERS system. Monolayers with trans-epithelial electrical resistance (TEER) values greater than 350 ohm·cm^2 were selected for the assay.
The assay was conducted in absorptive direction (A2B) and secretory (B2A) directions. Transport experiments were initiated by addition of transport assay buffer (FaSSIF buffer prepared in HBSS) consisting of compounds to the donor compartment (apical chamber A-B; basolateral chamber B-A) in duplicate (n=2) wells. Drug free HBSS buffer (pH 7.4) containing 1% bovine serum albumin (BSA) was introduced to the receiver (A-B-basolateral; B-A-Apical) compartments. The volumes of apical and basolateral compartments were 0.4 and 0.8 mL, respectively. After adding dosing solution, plates were incubated in an incubator for 120 minutes at 37° C. After 120 minutes, donor and receiver samples were collected and matrix matched (1:1, 30 μL study sample+30 μL blank buffer) with the opposite buffer. Dosing samples matrix matched (1:1, 30 μL study sample+30 μL blank buffer) with the opposite buffer. Samples were processed by adding acetonitrile containing internal standard (60 μL study sample+200 μL acetonitrile containing internal standard—Tolbutamide, 500 ng/mL). Samples were vortexed and centrifuged at 4000 rpm for 10 minutes. The obtained supernatant (100 μL) was diluted with 100 μL of water and transferred to fresh 96 well plates. The concentration of compounds in the samples was analyzed by liquid chromatography tandem mass spectrometry (LC-MS/MS) method using discovery grade bio-analytical method, as applicable.
The mean apparent permeability (Papp,×10^−6 cm/sec) of the test compounds, atenolol, propranolol and digoxin were calculated as follows:
[formula] where dq/dt=rate of transport (rate of transport of compound in the receiver compartment), C0=initial concentration in the donor compartment, A=surface area of the effective filter membrane.

Human LBAT = target: T2, Human LBAT (Homo sapiens, UniProt Q14973); assay: LBAT (h/m) assay, human LBAT-overexpressing cells, 3H-taurocholic acid uptake; format: cell-based; conditions: 0.3 μM 3H-taurocholic acid and 7.5 μM cold taurocholic acid, 20 minutes, read-out: hLBAT IC50
T2 construct: expressed in transfected cells; Geneticin-selected
T2 sequence (Q14973 1-349): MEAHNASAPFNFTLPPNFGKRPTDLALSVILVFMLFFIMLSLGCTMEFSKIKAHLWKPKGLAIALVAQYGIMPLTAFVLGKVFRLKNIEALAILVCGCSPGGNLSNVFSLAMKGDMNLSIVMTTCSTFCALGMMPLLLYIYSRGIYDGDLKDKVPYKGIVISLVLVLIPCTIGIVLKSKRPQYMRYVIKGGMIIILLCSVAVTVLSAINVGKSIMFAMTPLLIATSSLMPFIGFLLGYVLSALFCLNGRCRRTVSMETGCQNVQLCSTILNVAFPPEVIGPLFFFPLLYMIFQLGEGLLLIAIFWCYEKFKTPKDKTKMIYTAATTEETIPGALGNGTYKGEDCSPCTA
Description: LBAT (h/m) Assay Protocol
20,000 cells (Human or Mouse LBAT-overexpressing cells) were seeded in 96-wells plate (Corning CLS3809) in 100 μL MEM-alpha medium (Gibco 12571-063) supplemented with 10% FBS (Gibco 10438026) containing Geneticin (Gibco 10131-027) (1 mg/mL) and incubated at 37° C. in 5% CO2 for 24 hours. After incubation, media was decanted from the wells and cells were washed two times with 300 μL of basal MEM-alpha medium (FBS-free). After decanting basal MEM-alpha medium each time, plates were tapped against paper towel to ensure maximum removal of residual media.
For human LBAT, incubation mix was prepared by adding test inhibitor dilutions (3-fold serial dilution in DMSO (Sigma D2650), 10 points) in MEM-alpha (without FBS) containing 0.3 μM 3H-taurocholic acid (ARC ART-1368) and 7.5 μM cold taurocholic acid (Sigma T4009) (maintaining 0.2% final DMSO concentration). For mouse LBAT, incubation mix was prepared by adding test inhibitor dilutions (3-fold serial dilution in DMSO, 10 points) in MEM-alpha (without FBS) containing 0.3 μM 3H-taurocholic acid and 25 μM cold taurocholic acid maintaining 0.2% final DMSO concentration). 50 μL of incubation mix containing test inhibitors was then added to the wells (in duplicate) and the plates were incubated for 20 minutes in a CO2 incubator at 37° C. After incubation, the reaction was stopped by keeping the plates on ice water mix for 2-3 minutes and then the incubation mix was aspirated completely from the wells. The wells were washed two times with 250 μL of chilled unlabelled 1 mM taurocholic acid dissolved in HEPES (Gibco 15630080)-buffered (10 mM) HBSS (Gibco 14175079) (pH 7.4). The plates were tapped against a paper towel after every wash to ensure maximum removal of blocking buffer. 100 μL of MicroScint-20 (PerkinElmer 6013621) was added to the wells and kept overnight at room temperature before reading the plates in TopCount NXT™ Microplate Scintillation and Luminescence Counter from PerkinElmer under 3H Test protocol (set at 120 seconds reading time per well, with normal plate orientation).
as §1, §2

| IC50 (Human IBAT) [nM] | Papp A→B at 120 min, 10 μM [1] [×10⁻⁶ cm/s] | IC50 (Human LBAT) [nM] | SMILES |
| --- | --- | --- | --- |
| 2 | 16.5 | – | CCCCC1(CC)CN(c2ccccc2)c2cc(N(C)C)c(OCCC(=O)O)cc2S(=O)(=O)C1 (single isomer, unassigned) [Example 17, 3-((3-butyl-7-(dimethylamino)-3-ethyl-1,1-dioxido-5-phenyl-2,3,4,5-tetrahydro-1,5-benzothiazepin-8-yl)oxy)propanoic acid] |
| 3 | 17.6 | – | CCCCC1(CC)CN(c2ccccc2)c2cc(N(C)C)c(OCCC(=O)O)cc2S(=O)(=O)C1 (racemic) [Example 16, 3-((3-Butyl-7-(dimethylamino)-3-ethyl-1,1-dioxido-5-phenyl-2,3,4,5-tetrahydro-1,5-benzothiazepin-8-yl)oxy)propanoic acid] |
| 36 | – | 247 | CCCCC1(CC)CN(c2ccccc2)c2cc(Cl)c(OC(C)CC(=O)O)cc2S(=O)(=O)C1 (single isomer, unassigned) [30, diastereomers 1 and 2] |
| 46 | – | > 20000 | CCCCC1(CC)CN(c2ccccc2)c2cc(OC)c(OCCC(=O)O)cc2S(=O)(=O)C1 (single isomer, unassigned) [44, enantiomer 1] |

The remaining lines, values behind:

| SMILES | IC50 (Human IBAT) [nM] | Papp A→B at 120 min, 10 μM [1] [×10⁻⁶ cm/s] | IC50 (Human LBAT) [nM] |
| --- | --- | --- | --- |
| CCCCC1(C)CN(c2ccccc2)c2cc(SC)c(OCCC(=O)O)cc2S(=O)(=O)C1 (single isomer, unassigned) [Example 23, 3-((3-butyl-3-methyl-7-(methylthio)-1,1-dioxido-5-phenyl-2,3,4,5-tetrahydro-1,5-benzothiazepin-8-yl)oxy)propanoic acid] | 334 | – | 182 |
| CCCCC1(C)CN(c2ccccc2)c2cc(SC)c(OCC(C)(O)C(=O)O)cc2S(=O)(=O)C1 (single isomer, unassigned) [33, diastereomer 1] | 123 | – | 5940 |
| CCCCC1(CCCC)CN(c2ccccc2)c2cc(SC)c(OCC(C)(O)C(=O)O)cc2S(=O)(=O)C1 (single isomer, unassigned) [Example 20, 3-((3,3-dibutyl-7-(methylthio)-1,1-dioxido-5-phenyl-2,3,4,5-tetrahydro-1,5-benzothiazepin-8-yl)oxy)-2-hydroxy-2-methylpropanoic acid] | 42 | – | 1390 |
| CCCCC1(C)CN(c2ccccc2)c2cc(SC)c(OCCC(=O)O)cc2S(=O)(=O)C1 (racemic) [Example 22, 3-((3-butyl-3-methyl-7-(methylthio)-1,1-dioxido-5-phenyl-2,3,4,5-tetrahydro-1,5-benzothiazepin-8-yl)oxy)propanoic acid] | 10 | – | 543 |
| CCCCC1(CC)CN(c2ccc(F)cc2)c2cc(SC)c(OCC(O)C(=O)O)cc2S(=O)(=O)C1 (single isomer, unassigned) [42, diastereomer 4] | 1 | – | 689 |

Reference: patent US11773071B2, “Benzothiazepine compounds and their use as bile acid modulators” (Albireo AB, priority 2019, dated 2023)
